The text below walks through data of paper PMC3986099, “Development of a Radioiodinated Triazolopyrimidine Probe for Nuclear Medical Imaging of Fatty Acid Binding Protein 4” (PLoS ONE, 2014).

In data set [1] the target is T1, his-tagged FABP4 (Homo sapiens, UniProt P15090).
T1 construct: purchased Cayman Chemical Company
As to the kind of experiment: Competition binding assay with 1,8-ANS as tracer. How it is done: In accordance with previous reports, competition binding experiments were performed using 8-anilino-1-naphthalene sulfonic acid (1,8-ANS) as the tracer. Briefly, a mixture containing 0.12 ml phosphate buffer (50 mM, pH = 7.4), 0.03 ml TAP1 (2.6 mM–300 nM) in DMSO, 0.075 ml 1,8-ANS (24 nM) in phosphate buffer (0.2% ethanol, v/v) and 0.075 ml his-tagged FABP4 (1 µM) in phosphate buffer was incubated at room temperature for 5 min. […] The inhibition constants (K i) were calculated using the Cheng-Prusoff equation: K i = IC50/(1+[L]/K d), where [L] is the 1,8-ANS concentration and K d is the 1,8-ANS dissociation constant.

Data set [2] deals with differentiated THP-1 cells. As to the kind of experiment: Cell uptake study and inhibition assay. In kind it is cell-based, Human. The settings on record: 4 °C, 3 hr. Here is the method:
Human monocytic leukemia THP-1 cells were obtained from ATCC and rat glioma C6 cells were from the Health Science Research Resources Bank. THP-1 cells were cultured in Gibco RPMI 1640 medium (Nissui Pharmaceutical Co., Ltd.) supplemented with 10% heat-inactivated fetal bovine serum (Nichirei Bioscience Inc.), 50 U/ml penicillin and 50 µg/ml streptomycin (Nacalai Tesque, Inc.) at 37 °C in 5% CO2. C6 cells were cultured in McCoy's 5A Modified Medium supplemented with 10% heat-inactivated fetal bovine serum, 50 U/ml penicillin and 50 µg/ml streptomycin at 37 °C in 5% CO2. For cell uptake assays, THP-1 monocytes were differentiated into macrophages by incubation with 100 nM phorbol 12-myristate 13-acetate for 24 hr.
For the cell uptake study, tubes were pre-incubated with 50 mg/ml skim milk in PBS (-) at 4 °C for 3 hr. Then, 0.4 ml of differentiated THP-1 cells (1.0×10^6 cells/tube) in PBS (-) and 0.05 ml [^125I]TAP1 in PBS (-) (0.008 MBq, 5% ethanol, v/v) were added to the tubes, and the cells were incubated at 4 °C for 3 hr. […] The radioactivity of the tubes was measured with a well-type γ-counter. […] Binding ratios were calculated as (radioactivity in tubes)/(total applied radioactivity)/(protein abundance) ×100 (%Dose/mg protein). […] After incubation at 4 °C for 3 hr, the radioactivity measurement and calculation of the binding ratio were performed as described above. […]

Data set [3] concerns 3T3-L1 preadipocytes and differentiated adipocytes. Briefly: Cell uptake study in adipocytes and preadipocytes. In kind it is cell-based, Murine. The settings on record: concentration-dependent, 0-100 μM. How it is done:
Murine 3T3-L1 preadipocytes were obtained from ATCC and cultured in Dulbecco's Modified Eagle Medium (Nissui Pharmaceutical Co., Ltd.) supplemented with 10% heat-inactivated fetal bovine serum, 50 U/ml penicillin and 50 μg/ml streptomycin at 37 °C in 5% CO2. For cell uptake assay, differentiation of 3T3-L1 cells was performed as described previously. Briefly, two days after confluence, the medium was replaced with DMEM containing 10% FBS and inducers ([…], 10 μg/ml insulin, 0.5 mM 3-isobutyl-1-methylxanthine and 10 μM pioglitazone hydrochloride) for 2 days. The medium was then changed to DMEM supplemented with 10% FBS, 10 μg/ml insulin and 10 μM pioglitazone hydrochloride, and then incubated for 2 days. Then, the medium was changed to DMEM supplemented with 10% FBS and 10 μM pioglitazone hydrochloride every other day. After 8-10 days, the differentiated adipocytes were used for experiments.
For the cell uptake study using adipocytes, the medium of 24-well plate, in which the differentiated adipocytes or undifferentiated 3T3-L1 cells are cultured, was removed. […] Following the measurement of the radioactivity of collected cell lysate with a well-type γ-counter, protein determination was performed. […] Binding ratios were calculated as (radioactivity in collected cells)/(total applied radioactivity)/(protein abundance) x 100 (%Dose/mg protein).

Data set [4] is described as follows: Parallel artificial membrane permeation assay (PAMPA). In kind it is in vitro ADME. The settings on record: room temperature, read-out: permeability (PAMPA). Here is the method:
The permeability of TAP1 was measured using a pre-coated PAMPA plate system (BD Biosciences) following the manufacturer's procedures. Briefly, TAP1 (100–200 µM, 0.2 ml) was added to donor plate and PBS (-) (0.2 ml) was added to the acceptor plate in the PAMPA plate assembly. After coupling both plates together and incubating at room temperature for 5 hr, 0.15 ml of the sample was obtained from each plate and 0.15 ml of the original compound solution was also obtained. Then, the absorbance of each sample was measured at 280 nm. The permeability was calculated as: Pe (cm/s) = (−ln[1−CA/Cequilibrium])/St (1/VD+1/VA) and Cequilibrium = [CDVD+CAVA]/(VD+VA). CD = C0 (AD−Abuffer)/(A0−Abuffer) and CA = C0 (AA−Abuffer)/(A0−Abuffer). C0 is the concentration of the start sample and A0, Abuffer, AD and AA are absorbances of the starting sample, buffer, donor and acceptor, respectively. VD and VA are the donor and acceptor volumes, respectively. S is the membrane area and t is the incubation time.
In general terms: PAMPA measures passive passage across an artificial lipid membrane.

For data set [5], the target named is T1, his-tagged FABP4. As to the kind of experiment: Selectivity binding assay with FABP immobilized on Ni-NTA magnetic agarose beads. How it is done: For the selectivity binding assay, his-tagged FABP3 (0.75 mg/ml), FABP4 (0.75 mg/ml) and FABP5 (0.70 mg/ml) in 50 mM phosphate buffer containing 100 mM NaCl (20% glycerol, v/v, pH = 7.2) were used. Immobilization was performed following the manufacturer's procedures. Each solution of his-tagged FABP3 ([…], 1.5 µg), FABP4 (0.002 ml, 1.5 µg) or FABP5 (0.002 ml, 1.4 µg) was incubated with 0.02 ml Ni-NTA Magnetic Agarose Beads (Qiagen) and 0.5 ml protein binding buffer (50 mM NaH2PO4, 300 mM NaCl, 10 mM imidazole, pH = 8.0) at room temperature for 1 hr. After supernatant removal, protein binding buffer with 1% BSA was added, and the mixture was incubated at room temperature for 30 min. After removal of the supernatant, 0.4 ml of interaction buffer (50 mM NaH2PO4, 300 mM NaCl, 10 mM imidazole, and 0.005% Tween, v/v, pH = 8.0) and 0.05 ml [^125I]TAP1 (0.01 MBq) in interaction buffer (5% ethanol, v/v) were added. For measurement of non-specific binding, 0.05 ml of nonradioactive TAP1 in interaction buffer (5% ethanol, v/v, 11.3 µM) was added with the [^125I]TAP1. After incubation at room temperature for 2 hr, the supernatants were removed, and the beads washed with interaction buffer (5% ethanol, v/v). The radioactivity of beads in the tubes was measured with a well-type γ-counter (1480 Wizard3, PerkinElmer Japan Co., Osaka, Japan). Binding ratios were calculated as (radioactivity of beads)/(total applied radioactivity)/(protein abundance on beads)×100 (%Dose/µg protein).

T1 sequence (P15090 whole entry): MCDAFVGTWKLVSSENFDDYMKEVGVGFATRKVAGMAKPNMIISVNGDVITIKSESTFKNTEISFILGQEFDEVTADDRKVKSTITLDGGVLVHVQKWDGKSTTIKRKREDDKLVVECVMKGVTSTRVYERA

Usually Kd stands for the concentration at which binding is half-saturated. At his-tagged FABP4 [1], `O=S(=O)(O)c1cccc2cccc(Nc3ccccc3)c12` [1,8-ANS, 8-anilino-1-naphthalene sulfonic acid, reference compound] returned a Kd of 1200 nM.

With `CCc1c(-c2ccccc2)c(-c2ccccc2)nn1-c1ccccc1-c1cccc(OCC(=O)O)c1` [BMS309403, reference compound], the “inhibition of [^125I]TAP1 uptake into differentiated THP-1 cells” value in data set [2] is recorded as “significantly inhibited”. Besides, the “inhibition of [^125I]TAP1 uptake into adipocytes” value in data set [3] was “significantly inhibited”.

What is called Ki is a measure of affinity in units of concentration, obtained from inhibition or displacement. Low readings indicate tighter binding, high ones weaker binding. With `O=c1cc(COc2cccc(I)c2)[nH]c2nc(-c3ccccc3)nn12` [TAP1, 5-{(3-Iodophenoxy)methyl}-2-phenyl-[1], [2], [4]triazolo[1,5-a]pyrimidin-7(4H)-one], the Papp at 5 h in data set [4] turned out to be 12.6 ± 2.9 ×10⁻⁶ cm/s. Besides, on his-tagged FABP4 [5] (FABP4 over FABP3), the “FABP4 binding relative to FABP3” value is reported as “more than 10 fold”. For the same compound, the “FABP4 binding relative to FABP5” value on his-tagged FABP4 [5] (FABP4 over FABP5) is recorded as “more than 10 fold”. Moreover, in data set [2], the “inhibition of [^125I]TAP1 uptake into differentiated THP-1 cells” value was “significantly inhibited”. On his-tagged FABP4 [1] (competition with 1,8-ANS, FABP4), this compound registered an inhibition constant Ki of 44.5 ± 9.8 nM.
